# Like-named read-outs stand apart in the source and are kept apart here.
# Assays:
# [1] = Cytotoxicity assay (XTT), HEK 293T cells; format: cell-based; conditions: human
# Method: HEK 293T, A549 and MDCK cells were seeded at 3 × 10^3 cells per well in 100 μL DMEM complete medium. The following day, compounds were added to the corresponding wells, and the cells were incubated for 48 hours at 37 °C in 5% CO2. After incubation, cell viability was analyzed by XTT colorimetric assay. Then, 50 μL of a 50 : 1 mixture of XTT labelling reagent (1 mg mL^−1) and PMS electron-coupling reagent (0.383 mg mL^−1) were added to the wells and incubated for 4 hours at 37 °C in 5% CO2. The formation of orange formazan dye was measured on a Tecan Spark plate reader (Tecan Life Sciences, USA). The experiments were performed in biological triplicates, and the resulting data were analyzed using GraphPad Prism 10.0 software (GraphPad Software, San Diego, CA, USA). […]
# incubating serial dilutions of each tested compound and control compounds with the selected cell cultures. HEK 293T cells were seeded at 3x10^3 cells per well in 100 μl of DMEM complete medium. The following day the tested compounds were added to the corresponding well and the cells were incubated for 48 hours at 37 °C in 5% CO 2. After incubation, cell viability was analysed by XTT colorimetric assay. 50 μl of 50:1 mixture of XTT labelling reagent (1 mg/mL) and PMS electron-coupling reagent (0.383 mg/mL) were added to the wells and incubated for 4 hours at 37 °C in 5% CO2. The formation of orange formazan dye was measured on a Tecan Spark plate reader (Tecan Life Sciences, USA). The experiments were performed in biological triplicates, and the resulting data were analyzed using GraphPad Prism 10.0 software (GraphPad Software, San Diego, […]
# [2] = Cytotoxicity assay (XTT), MDCK cells; format: cell-based, canine; conditions: dog
# Method: (§1) HEK 293T, A549 and MDCK cells were seeded at 3 × 10^3 cells per well in 100 μL DMEM complete medium. The following day, compounds were added to the corresponding wells, and the cells were incubated for 48 hours at 37 °C in 5% CO2. After incubation, cell viability was analyzed by XTT colorimetric assay. Then, 50 μL of a 50 : 1 mixture of XTT labelling reagent (1 mg mL^−1) and PMS electron-coupling reagent (0.383 mg mL^−1) were added to the wells and incubated for 4 hours at 37 °C in 5% CO2. The formation of orange formazan dye was measured on a Tecan Spark plate reader (Tecan Life Sciences, USA). The experiments were performed in biological triplicates, and the resulting data were analyzed using GraphPad Prism 10.0 software (GraphPad Software, San Diego, CA, USA).
# [3] = system: influenza A (A/California/07/2009 (H1N1)); test: Cytopathic effect reduction assay in MDCK cells; format: cell-based; conditions: for EC50: read-out: EC50 antiviral testing MDCK
# [4] = system: influenza A (A/California/07/2009 (H1N1)); test: Cytopathic effect reduction assay in A549 cells; format: cell-based; conditions: for EC50: read-out: EC50 antiviral testing A549
# [5] = Cytotoxicity assay (XTT), A549 cells; format: cell-based, human; conditions: human
# Method: as §1
# [6] = system: MDCK cells; test: Cytotoxicity assay (XTT), MDCK cells; format: cell-based, canine
# Method: as §1
# [7] = system: A549 cells; test: Cytotoxicity assay (XTT), A549 cells; format: cell-based, human
# Method: as §1
# [8] = biological target: T1, influenza A polymerase (Influenza A virus, UniProt P15659); test: cell-based; design: species or system influenza A/WSN/33 H1N1; conditions: read-out: EC50 minireplicon A549
# [9] = biological target: T1, influenza A polymerase; test: cell-based; format: cell-based, influenza A/WSN/33 H1N1; conditions: for EC50: read-out: EC50 minireplicon HEK 293T
# [10] = Influenza A virus, H1N1, MDCK, 72 h
# [11] = Influenza A virus, H1N1, A549, 96 h
Structure (SMILES),CC50 at 48 h [1] [µM],CC50 at 48 h [2] [µM],"EC50 [3, 10] [µM]","EC50 [4, 11] [µM]",CC50 at 48 h [5] [µM],CC50 [6] [µM],CC50 cytotoxicity MDCK [6],EC50 antiviral testing MDCK [3],EC50 [3] [µM],EC50 antiviral testing A549 [4],EC50 [4] [µM],CC50 [7] [µM],CC50 cytotoxicity A549 [7],EC50 [8] [µM],EC50 [9] [µM],"CC50 at 48 h ([1]; HEK 293T cells, 48 hours, XTT, read-out: CC50 cytotoxicity HEK 293T) [µM]","CC50 at 48 h ([2]; MDCK cells, 48 hours, XTT, read-out: CC50 cytotoxicity MDCK) [µM]",EC50 minireplicon HEK 293T [9],"CC50 at 48 h ([5]; A549 cells, 48 hours, XTT, read-out: CC50 cytotoxicity A549) [µM]"
"COC(=O)OCOc1c2n(ccc1=O)N([C@@H]1c3ccccc3SCc3c1ccc(F)c3F)[C@@H]1COCCN1C2=O [BMX, baloxavir marboxil, reference compound]",> 50,> 50,0.03 ± 0.008,1.8 ± 0.4,> 50,–,–,–,–,–,–,–,–,–,–,–,–,–,–
"O=C1c2c(O)c(=O)ccn2N([C@@H]2c3ccccc3SCc3c2ccc(F)c3F)[C@@H]2COCCN12 [BXA, baloxavir acid, reference compound]",–,–,–,–,–,5 ± 1,moderate cytotoxicity,[…],[…],[…],[…],14 ± 3,moderate cytotoxicity,–,–,–,–,–,–
"Oc1cc(O)c2c(O)cc(-c3ccc(O)c(O)c3)cc2c1 [Compound 24, 6-(3,4-Dihydroxyphenyl)naphthalene-1,3,8-triol]",> 50,> 50,> 100,12 ± 1,> 50,–,–,–,–,–,–,–,–,0.8 ± 0.2,1.1 ± 0.1,–,–,–,–
"O=c1cc(-c2cc(O)c3c(O)cc(O)cc3c2)[nH]cc1O [Compound 33, 5-Hydroxy-2-(4,5,7-trihydroxynaphthalen-2-yl)pyridin-4(1H)-one]",> 50,> 50,41 ± 13,2.4 ± 0.4,> 50,–,–,–,–,–,–,–,–,2.8 ± 0.6,2.1 ± 0.2,–,–,–,–
"O=c1[nH]c(-c2cc(O)c3c(O)cc(O)cc3c2)cnc1O [Compound 34, 3-Hydroxy-6-(4,5,7-trihydroxynaphthalen-2-yl)pyrazin-2(1H)-one]",> 50,> 50,> 100,> 100,> 50,–,–,–,–,–,–,–,–,1.7 ± 0.4,1.8 ± 0.1,–,–,–,–
"O=c1[nH]c(-c2cc(O)c3c(O)cc(O)cc3c2)ncc1O [Compound 36, 5-Hydroxy-2-(4,5,7-trihydroxynaphthalen-2-yl)pyrimidin-4(3H)-one]",> 50,> 50,> 100,10 ± 1,> 50,–,–,–,–,–,–,–,–,1.8 ± 0.5,1.4 ± 0.2,–,–,–,–
"O=c1cc(-c2ccc(O)c(O)c2)oc2cc(O)cc(O)c12 [Luteolin, luteolin, reference compound]",–,–,> 100,20 ± 2,–,–,–,–,–,–,–,–,–,9.2 ± 4.1,> 100,> 50,> 50,did not show any inhibition,> 50
